Experimental data published in patent publication US20260041669A1, “SOLID FORMS OF A CDK INHIBITOR” (Relay Therapeutics, Inc., priority 2022, published 2026).
In brackets after ≈: the same amount, converted by molar mass. Several values for one entry are separate records, joined by “and”; a condition that tells them apart may be missing. Identical values can stand only once. Like-named read-outs stand apart in the source and are kept apart here.

Assay: Thermodynamic solubility of cocrystals (HPLC quantitation)
Format: physicochemical
Settings: for solubility at 24 h: thermodynamic from solid
Protocol: Base Buffer (FaSSGF), pH 1.6—Sodium chloride (2.03 g) was dissolved in Ca. 800 ml of deionised water in a 1 L volumetric flask. This solution was mixed thoroughly and then the pH adjusted to 1.6±0.05 with concentrated hydrochloric acid. The solution was then made to volume with deionised water and the pH recorded (pH 1.6).
FaSSGF Media—Phares SIF (simulated intestinal fluid) powder (0.06 g) was dissolved in Ca. 800 ml of base buffer (2.1.1) in a 1 L volumetric flask. This solution was mixed thoroughly and then made to volume with the same base buffer. The final pH was recorded (pH 1.7)
Acetate Base Buffer (FeSSIF), pH 5.0—Sodium hydroxide (11.90 g), acetic acid (8.25 ml) and sodium chloride (3.96 g) were dissolved in Ca. 800 ml of deionised water in a 1 L volumetric flask. This solution was mixed thoroughly and then the pH adjusted to 5.0±0.05 with 0.5M hydrochloric acid. The solution was then made to volume with deionised water and the pH recorded (pH 5.0)
FeSSIF Media—Phares SIF (simulated intestinal fluid) powder (1.12 g) was dissolved in Ca. 80 ml of base buffer (2.2.1) in a 100 ml volumetric flask. This solution was mixed thoroughly and then made to volume with the same base buffer. The final pH was recorded (pH 4.8)
Phosphate Base Buffer (FeSSIF), pH 6.5—Sodium hydroxide (0.41 g), sodium phosphate monobasic (3.95 g) and sodium chloride (6.49 g) were dissolved in Ca. 800 ml of deionised water in a 1 L volumetric flask. This solution was mixed thoroughly and then the pH adjusted to 6.5 f 0.05 with 0.5M hydrochloric acid. The solution was then made to volume with deionised water and the pH recorded (pH 6.5)
FaSSIF Media—Phares SIF (simulated intestinal fluid) powder (0.23 g) was dissolved in Ca. 80 ml of base buffer ([00300]) in a 100 ml volumetric flask. This solution was mixed thoroughly and then made to volume with the same base buffer. The final pH was recorded (pH 6.3)
DI Water (deionized water)—The pH was recorded (pH 6.1)
Thermodynamic Solubility—Sufficient sample was suspended in 0.5 ml media for a maximum anticipated concentration of Ca. 10 mg/ml of the free form of the compound. The resulting suspensions were then shaken at 25° C./750 rpm for 24 hours in DI H2O and at 37° C./750 rpm for 24 hours in simulated fluids. After equilibration, the appearance was noted, and the pH of the saturated solution was measured. Samples were then filtered through a glass ‘C’ fibre filter (Particle retention 1.2 μm), before dilution with buffer as appropriate.
Quantitation was by HPLC with reference to a standard solution of approximately 0.15 mg/ml. Different volumes of the standards and diluted sample solutions were injected. The solubility was calculated using the peak areas determined by integration of the peak found at the same retention time as the principal peak in the standard injection.
The results from the solubility measurements in deionized water (DI water), stimulated fasting state conditions in the gastric fluid (FaSGF), simulated fed state conditions in the small intestines (FeSSIF), and simulated fasting state conditions in the small intestines fluid (FaSSIF) are summarized in Table 16.

[1] = DI Water, shaken at 25° C./750 rpm for 24 hours, single replicate
[2] = FaSSGF, shaken at 37° C./750 rpm for 24 hours, average
[3] = FaSSGF, shaken at 37° C./750 rpm for 24 hours, single replicate
[4] = FeSSIF, shaken at 37° C./750 rpm for 24 hours, average
[5] = FeSSIF, shaken at 37° C./750 rpm for 24 hours, single replicate
[6] = DI Water, shaken at 25° C./750 rpm for 24 hours, average
[7] = FaSSIF, shaken at 37° C./750 rpm for 24 hours, average
[8] = FaSSIF, shaken at 37° C./750 rpm for 24 hours, single replicate

SMILES | Solubility [1] | Average Solubility [2] | Solubility [3] | Average Solubility [4] | Solubility [5] | solubility at 24 h (deionized water, 25 °C, pH 6.1, water, DI Water, shaken at 25° C./750 rpm for 24 hours, average, read-out: Average Solubility) | solubility at 24 h (deionized water, 25 °C, pH 6.1, water, DI Water, shaken at 25° C./750 rpm for 24 hours, single replicate, read-out: Solubility) | Average Solubility [6] | Average Solubility [7] | Solubility [8] | solubility at 24 h (FaSSGF (simulated gastric fluid, fasted state), 37 °C, pH 1.7, fassgf or other biorelevant, FaSSGF, shaken at 37° C./750 rpm for 24 hours, average, read-out: Average Solubility) | solubility at 24 h (FaSSGF (simulated gastric fluid, fasted state), 37 °C, pH 1.7, fassgf or other biorelevant, FaSSGF, shaken at 37° C./750 rpm for 24 hours, single replicate, read-out: Solubility) | solubility at 24 h (FaSSIF (simulated intestinal fluid, fasted state), 37 °C, pH 6.3, fassif, FaSSIF, shaken at 37° C./750 rpm for 24 hours, average, read-out: Average Solubility) | solubility at 24 h (FaSSIF (simulated intestinal fluid, fasted state), 37 °C, pH 6.3, fassif, FaSSIF, shaken at 37° C./750 rpm for 24 hours, single replicate, read-out: Solubility) | solubility at 24 h (FeSSIF (simulated intestinal fluid, fed state), 37 °C, pH 4.8, fessif, FeSSIF, shaken at 37° C./750 rpm for 24 hours, average, read-out: Average Solubility)
Cn1nc(OCC(F)F)cc1C(=O)Nc1cc([C@H]2C[C@@H](OC(=O)NC34CC(C3)C4)CO2)n[nH]1 [Componud I-3 Form A] | 300 µg/mL (≈ 643 µM) | 390 µg/mL | 380 µg/mL and 390 µg/mL | 490 µg/mL | 620 µg/mL and 360 µg/mL | 300 µg/mL (≈ 643 µM) | 290 µg/mL (≈ 622 µM) |  |  |  |  |  |  |  | 
Cn1nc(OCC(F)F)cc1C(=O)Nc1cc([C@H]2C[C@@H](OC(=O)NC34CC(C3)C4)CO2)n[nH]1 [Compound 1-5 Form A] | 280 µg/mL (≈ 600 µM) | 310 µg/mL | 310 µg/mL (≈ 665 µM) | 820 µg/mL | 840 µg/mL and 800 µg/mL |  |  | 280 µg/mL | 250 µg/mL | 240 µg/mL (≈ 515 µM) |  |  |  |  | 

Now from value to compound:

Solubility [1] | Average Solubility [2] | Solubility [3] | Average Solubility [4] | Solubility [5] | solubility at 24 h (deionized water, 25 °C, pH 6.1, water, DI Water, shaken at 25° C./750 rpm for 24 hours, average, read-out: Average Solubility) | solubility at 24 h (deionized water, 25 °C, pH 6.1, water, DI Water, shaken at 25° C./750 rpm for 24 hours, single replicate, read-out: Solubility) | Average Solubility [6] | Average Solubility [7] | Solubility [8] | solubility at 24 h (FaSSGF (simulated gastric fluid, fasted state), 37 °C, pH 1.7, fassgf or other biorelevant, FaSSGF, shaken at 37° C./750 rpm for 24 hours, average, read-out: Average Solubility) | solubility at 24 h (FaSSGF (simulated gastric fluid, fasted state), 37 °C, pH 1.7, fassgf or other biorelevant, FaSSGF, shaken at 37° C./750 rpm for 24 hours, single replicate, read-out: Solubility) | solubility at 24 h (FaSSIF (simulated intestinal fluid, fasted state), 37 °C, pH 6.3, fassif, FaSSIF, shaken at 37° C./750 rpm for 24 hours, average, read-out: Average Solubility) | solubility at 24 h (FaSSIF (simulated intestinal fluid, fasted state), 37 °C, pH 6.3, fassif, FaSSIF, shaken at 37° C./750 rpm for 24 hours, single replicate, read-out: Solubility) | solubility at 24 h (FeSSIF (simulated intestinal fluid, fed state), 37 °C, pH 4.8, fessif, FeSSIF, shaken at 37° C./750 rpm for 24 hours, average, read-out: Average Solubility) | SMILES
330 µg/mL (≈ 707 µM) | 320 µg/mL | 320 µg/mL (≈ 686 µM) | 700 µg/mL | 660 µg/mL and 730 µg/mL |  |  | 330 µg/mL | 310 µg/mL | 310 µg/mL (≈ 665 µM) |  |  |  |  |  | Cn1nc(OCC(F)F)cc1C(=O)Nc1cc([C@H]2C[C@@H](OC(=O)NC34CC(C3)C4)CO2)n[nH]1 [Compound 1-6 Form A]
210 µg/mL (≈ 450 µM) |  | 350 µg/mL (≈ 750 µM) |  | 920 µg/mL and 850 µg/mL |  |  | 210 µg/mL |  |  | 350 µg/mL (≈ 750 µM) | 340 µg/mL (≈ 729 µM) | 290 µg/mL (≈ 622 µM) | 290 µg/mL (≈ 622 µM) | 890 µg/mL (≈ 1910 µM) | Cn1nc(OCC(F)F)cc1C(=O)Nc1cc([C@H]2C[C@@H](OC(=O)NC34CC(C3)C4)CO2)n[nH]1 [Compound I-2 Form A]
290 µg/mL (≈ 622 µM) | 370 µg/mL | 370 µg/mL and 360 µg/mL | 880 µg/mL | 940 µg/mL and 820 µg/mL |  |  | 290 µg/mL | 290 µg/mL | 280 µg/mL (≈ 600 µM) |  |  |  |  |  | Cn1nc(OCC(F)F)cc1C(=O)Nc1cc([C@H]2C[C@@H](OC(=O)NC34CC(C3)C4)CO2)n[nH]1 [Compound I-4 Form A]
